Laboratory results from ChEMBL document CHEMBL5724696, “Autophagy assay results for EUbOPEN Chemogenomics Library” (2024).

Legend:
U2OS [1] = experiment: (§1) Here: values are normalized to the positive (DMSO; basel flux = defined as 100% suppression) and negative (250nM Torin1; mTOR inhibitor; maximal inducer of autophagy defined as 0% suppression) control compounds and represented as % of ER-phagy suppression. […] The impact of autophagy induction on cells is complex and depends on the affected target. […] Of note, treatment concentrations may be sub-optimal for specific compounds, leading to false negative annotations.; assay type: functional, Homo sapiens; settings: Compound Concentration 1 uM, Culturing Media DMEM, 1 % Penicillin/Streptomycin, 10% Fetal bovin serum Add-On: blasticidin, Screening Media Control DMEM, 10% Fetal bovin serum Add-On: 1 µg/ml Doxycyclin, Screening Media Samples DMEM, 10% Fetal bovin serum Add-On: 1 µg/ml Doxycyclin 250nM Torin1
U2OS [2] = experiment: as §1; assay type: functional, Homo sapiens; settings: Compound Concentration 1 uM, Culturing Media DMEM, 1 % Penicillin/Streptomycin, 10% Fetal bovin serum Add-On: blasticidin, Screening Media Control DMEM, 10% Fetal bovin serum Add-On: 1 µg/ml Doxycyclin, Screening Media Samples DMEM, 10% Fetal bovin serum Add-On: 1 µg/ml Doxycyclin 250nM Torin1; remark: listed apart in the source

Structure (SMILES)	ER-phagy suppression (U2OS [1]; Timepoint 12 hours) [%]	ER-phagy suppression (U2OS [1]; Timepoint 24 hours) [%]	ER-phagy suppression (U2OS [1]; Timepoint 36 hours) [%]	ER-phagy suppression (U2OS [1]; Timepoint 60 hours) [%]	ER-phagy suppression (U2OS [2]; Timepoint 12 hours) [%]	ER-phagy suppression (U2OS [2]; Timepoint 24 hours) [%]	ER-phagy suppression (U2OS [2]; Timepoint 36 hours) [%]	ER-phagy suppression (U2OS [2]; Timepoint 54 hours) [%]
O=c1cc(N2CCOCC2)oc2c1ccc1ccccc12	-2.095	14.4083	8.467	13.3057	4.944	-13.6038	-17.5746	-11.078
NC(=O)c1ccc2[nH]c(-c3ccc(Oc4ccc(Cl)cc4)cc3)nc2c1	-30.239	-28.4978	-29.0961	-19.7873	-2.841	-13.7146	-23.7031	-21.3336
COc1cc(Nc2nccc(-c3cnn4nc(OC)ccc34)n2)cc(C(F)(F)F)c1	6.994	7.618	14.0346	17.1827	3.334	-9.159	-23.3987	-10.034
O=c1cc(N2CCOCC2)oc2c(-c3cccc4c3sc3ccccc34)cccc12	23.1915	21.6983	3.92	-4.5	29.2209	24.7237	22.7043	31.557
C[C@@H]1CN(CC(=O)Nc2ccc3c(c2)Cc2cccc(-c4cc(=O)cc(N5CCOCC5)o4)c2S3)C[C@H](C)O1	56.3007	45.431	40.5334	35.1087	73.6735	67.8887	67.4998	71.8155
O=c1[nH]c2ccc(Cl)cc2c(N[C@@H]2CN3CCC2CC3)c1-c1nc2ccccc2[nH]1	-7.286	62.247	75.9097	86.9183	27.312	66.3141	83.8118	95.864
COc1cc(Nc2ccnc3ccc(Br)cc23)cc(OC)c1OC	44.6642	57.8089	50.5911	41.5059	45.26	43.6651	45.8783	55.0501
CC(C)C(=O)Nc1n[nH]c2cc(-c3cccc(NS(=O)(=O)C4CC4)c3)ccc12	0.1153	4.089	-6.11	-14.0127	3.579	-4.784	-8.796	-3.527
COc1cc(N(C)c2ccnc3ccc(C(F)(F)F)cc23)cc(OC)c1OC	-0.7345	0.8414	-10.6797	-10.2278	8.809	-16.6853	-22.3535	-19.7391
CN1CCN(Cc2cc(NC(=O)c3ccc4c(c3)CN(c3ccccc3)CC4)cc(C(F)(F)F)c2)CC1	-14.1546	-18.3974	-8.125	-14.9547	8.416	6.996	11.6775	26.4341
Cc1cn(-c2cc(NC(=O)c3ccc4c(c3)CN(c3cncnc3)C[C@@H]4C)cc(C(F)(F)F)c2)cn1	-5.176	-7.191	-10.2809	-23.2702	-11.2753	-32.01	-29.9662	-28.2988
CN(C)C(=O)/C(C#N)=C/c1ccc(-c2nc3cnc4[nH]ccc4c3n2C2CCCCC2)o1	-17.3558	-33.4897	-33.7439	-36.9146	-7.884	-25.0962	-37.4199	-35.162
O=C(O)CSc1ncnc2cc(-c3cc4ccccc4s3)sc12	-19.6328	-17.1874	-14.8161	-4.092	0.5897	-12.2442	-19.5389	-8.371
O=C(NCCCN1CCOC1=O)c1cnc(NCc2cc(Br)ccc2Br)nc1NC1CCCC1	-10.749	-21.0292	-39.1494	-40.5418	-5.816	-18.1911	-20.9165	-12.0292
O=C(O)CSc1ncnc2sc(-c3cc4ccccc4s3)cc12	-22.3534	-5.037	-13.712	-10.482	-2.052	-18.7288	-21.1701	-12.8701
CCN(Cc1ccc(Cl)cc1)c1ncc(C(=O)NCCCN2CCCC2=O)c(NC2CCCC2)n1	19.3372	13.3398	3.8795	-6.981	-0.9186	-13.7517	-21.2457	-16.9406
O=C(NCc1ccccc1)c1ccc(S(=O)(=O)NCc2ccccc2)cc1	-6.979	-12.761	-1.702	-8.939	3.538	-5.467	-1.304	10.3755
CCCCN(Cc1ccccc1)C(=O)c1ccc(S(=O)(=O)Nc2ccccc2)cc1	-1.971	-6.76	-4.753	-26.4705	-7.8361	-20.651	-23.4672	-25.4681
CN(C)C(=O)/C(C#N)=C/c1ccc(-c2nc3cnc4c(ccn4C)c3n2C2CCCCC2)o1	-5.937	-19.1708	-21.5711	-15.3462	-7.575	-15.5162	-12.7474	-14.5878
CN(C)[C@H]1C[C@H](n2cnc(-c3ccc(F)cn3)c2-c2ccnc3[nH]ccc23)C1	23.5482	2.98	12.4603	17.3235	22.3816	21.0505	31.8624	38.0418
Cn1ccc(Cn2cnc(-c3ccc(F)cc3)c2-c2ccnc3[nH]ccc23)n1	-25.1326	-19.5738	5.753	8.035	3.096	-2.866	1.074	6.853
CN(C)C1CC(n2cnc(-c3ccc(F)cc3)c2-c2ccnc3[nH]ccc23)C1 (centres undefined)	-29.1009	-31.4509	-16.9551	-15.1332	7.195	4.326	10.3106	11.0097
Fc1ccc(-c2ncn(Cc3nc[nH]n3)c2-c2ccnc3[nH]ccc23)cc1	1.163	2.249	8.909	19.5799	-8.055	-11.2707	-18.4467	-16.7104
